Data taken from patent US4933336A, “Thiadiazinone, oxadiazinone and triazinone derivatives, and their use for treating acute or chronic heart disease” (Laboratoires Sobio S.A., priority 1987, dated 1990).
Read-outs that look alike come from different tables or passages of the source.

How the values were obtained:
[1] = system: Canine cardiac myofibrillar Ca++-dependent Mg++ ATPase; assay: Measurement of myofibrillar Ca++-dependent Mg++ATPase activity (Ca++ sensitivity and maximal activity); assay type: biochemical, canine (dog); conditions: pH 7.0, 21° C.
Procedure: 1. Measurement of myofibrillar Ca++-dependent Mg++ATPase activity
the effect on myofibrillar Ca++sensitivity and on maximal activity of myofibrillar Ca++-dependent Mg++-ATPase was determined on canine cardiac myofibrils.
(a) Contractile protein preparation
Cardiac myofibrils free of membrane contaminants were prepared from left ventricular tissue of dog hearts using a modification of the method described by SOLARO et al, Biochem. Biophys. Acta, 245, 259-262, (1971). Before centrifugration, the heart homogenate was filtered through gauze.
After Triton X-100 treatments, the myofibrillar fraction was washed once by resuspension and centrifugation in 10 volumes of 1 mM EGTA, […], 30 mM imidazole, 2 mM MgCl2, pH 7.0. The pellet was then washed three times in 10 volumes of the same buffer without EGTA. Before the last centrifugation, the suspension of myofibrils was filtered through a stainless steel sieve with 0.25 mm meshes.
Myofibrils were kept in pellet overnight. Before use, the pellet was suspended in a small amount of buffer, the protein concentration was determined by the method of BRADFORD M., Anal. Biochem., 1976, 72, 248 and adjusted in order to have a concentration between 6 and 7 mg/ml.
(b) Myofibrillar ATPase activity
Ca++-dependent myfibrillar ATPase activity was determined at 21° C., pH 7.0, by measuring the rate of release of inorganic phosphate. All assays were performed within 24 hrs. of final purification, using the method described by SOLARO and RUEGG, CIRC. RES., 51, 290-4, (1982). Reaction mixtures (4 ml) containing 0.6-0.7 mg/ml myofibrillar protein, 80 mM KCl, 20 mM imidazole, 3 mM […], 1 mM EGTA, the desired amount of CaCl2, and the indicated concentration of drug or appropriate vehicle were preincubated for 6 min. prior to assay. The amount of CaCl2 was varied between 0 and 0.9 mM and the pCA (-log free Ca++) computed using 2.514×10^6 M^-1 as the apparent affinity of Ca++for EGTA at pH 7.0.
Reactions were initiated by the addition of Na2 ATP to final concentration of 2 mM. After an incubation period of 12 min., reactions were quenched by the addition of an equal volume of ice-cold 10% trichloroacetic acid. The protein was pelleted by centrifugation (2000 g, 15 min.) and Pi was assayed in the supernatant fraction using a modification of the method described by LANZETTA et al, Anal. Biochem., 100, 95-97, (1979).
The following solutions were prepared:
(1) 3.7% ammonium heptamolybdate in 0.12N H2 SO4
(2) 0.074% malachite green oxalate in 1% polyvinylic alcohol.
the colour reagent was prepared by mixing an equal volume of solution (1) and (2) 15 min. before the assay. For the assay, 1700 μl of 1% H2 SO4 and 1 ml of colour reagent were added to 100 μl of sample. Colour development occurred at room temperature for 30 min. and was quenched by the addition of 200 μl of 1M tri-potassium citrate. The absorbance was measured at 620 millimicrons.
The effect of each compound, tested at the indicated concentration, on the relation between pCa and percent activation was determined taking 100% for the maximum ATPase activity obtained with vehicle alone. The effect on Ca++ sensitivity was quantified by measuring the shift of the pCa giving 50% of the maximal control ATPase activity.
The effect on maximal ATPase activity was expressed as the percent change of ATPase activity for pCa=5.47.

[2] = system: conscious instrumented Dog; assay: Cardiotonic activity in the conscious instrumented Dog; assay type: in vivo, dog (male Beagle); conditions: Canis lupus familiaris, po; for change in vivo at 0.3 mg/kg: 0.30 mg/kg p.o.; for change in vivo at 3 mg/kg: 3.00 mg/kg p.o.; for change in vivo at 0.1 mg/kg: 0.10 mg/kg p.o.; for change in vivo at 0.03 mg/kg: 0.03 mg/kg p.o.; for change in vivo at 1 mg/kg: 1.00 mg/kg p.o.
Procedure: Cardiotonic activity in the conscious instrumented Dog
Male Beagle dogs, at least 2 years old, weighing 12 to 18 kg were anaesthetised with pentobarbital sodium (30 mg/kg i.v.). Respiration was maintained by a Harward pump, model 613a. The heart was exposed through a left thoracotomy and a pericardial cardle was formed. A high fidelity micromanometer (Koenigsberg P5 -P7) was inserted into left venitricular lumen through a stab incision at the apex. Wires were exteriorised to the back of the animals, placed into a size adapted jacket, and the chest closed. The experiments were conducted on the conscious dogs, 1 or 2 weeks after the surgery, when the animals had completely recovered.
Measured parameters were : first derivative of left ventricular pressure, (dP/dt, mmHg/sec); heart rate (HR, beats/min.). A control period recording of 90 min. was made with the dogs placed in a quiet room, the recordings being made outside. Compounds to be tested were administered orally in gelatin capsules and the parameters measured for 5 hrs. at least.
Results were expressed as the percentage of the maximum±SEM.

[3] = read-out: H.R. (heart rate), percentage of the maximum ± SEM
[4] = read-out: dP/dt Max (first derivative of left ventricular pressure), percentage of the maximum ± SEM

SMILES	Max ATPase activity (%) (percent change of ATPase activity for pCa=5.47) ([1]; 20 × 10^-5 molar)	Ca2+ sensitivity p CA50 (shift of the pCa giving 50% of the maximal control ATPase activity) ([1]; 20 × 10^-5 molar)	change in vivo at 0.3 mg/kg [2, 3]	change in vivo at 0.3 mg/kg [2, 4]	Max ATPase activity (%) (percent change of ATPase activity for pCa=5.47) ([1]; 3 × 10^-5 molar)	Ca2+ sensitivity p CA50 (shift of the pCa giving 50% of the maximal control ATPase activity) ([1]; 3 × 10^-5 molar)	change in vivo at 3 mg/kg [2, 3]	change in vivo at 3 mg/kg [2, 4]	also measured
CSC1(C)C(=O)Nc2ccc(C3=NNC(=O)SC3)cc21 (stereo not shown) [Example 1, 1,3-Dihydro-5-(3,6-dihydro-2-oxo-2H-1,3,4-thiadiazin-5-yl)-3-methyl-3-methylthio-2H-indol-2-one]	-3 ± 2%	0.38 ± 0.03	17%	53%					
O=C1NN=C(c2ccc3c(c2)C2(CCCS2)C(=O)N3)CS1 (stereo not shown) [Example 20, 5'-(3,6-Dihydro-2-oxo-2H-1,3,4-thiadiazin-5-yl)-spiro [thiolane-2,3'-[3H]-indol]-2'(1'H)-one]					-5 ± 3%	0.21 ± 0.05	8%	45%	
CC1SC(=O)NN=C1c1ccc2c(c1)C1(CCCCC1)C(=O)N2 (stereo not shown) [Example 17]					-17 ± 4%	0.41 ± 0.07	9%	40%	
CC1SC(=O)NN=C1c1ccc2c(c1)C(C)(C)CC(=O)N2 (stereo not shown) [Example 35, 3,4-Dihydro-6-(3,6-dihydro-6-methyl-2-oxo-2H-1,3,4-thiadiazin-5-yl)-4,4-dimethyl-2(1H)-quinolinone]					-1 ± 2%	0.45 ± 0.05			change in vivo at 0.1 mg/kg [2, 3]: 20%; change in vivo at 0.1 mg/kg [2, 4]: 49%
CC1SC(=O)NN=C1c1ccc2c(c1)C1(CCCS1)C(=O)N2 (stereo not shown) [Example 21, 5'-(3,6-Dihydro-6-methyl-2-oxo-2H-1,3,4-thiadiazin-5-yl) -spiro-[thiolane-2,3'-[3H]-indol]-2'(1'H)-one]			9%	42%					Max ATPase activity (%) (percent change of ATPase activity for pCa=5.47) ([1]; 1 × 10^-5 molar): -7 ± 2%; Ca2+ sensitivity p CA50 (shift of the pCa giving 50% of the maximal control ATPase activity) ([1]; 1 × 10^-5 molar): 0.46 ± 0.04
CC1SC(=O)NN=C1c1ccc2c(c1)C1(SCCS1)C(=O)N2 (stereo not shown) [Example 13, 5'-(3,6-Dihydro-6-methyl-2-oxo-2H-1,3,4 thiadiazin-5-yl) -spiro 1,3-dithiolane-2,3'-3H indol-2(1'H)-one]			15%	43%	-11 ± 5%	0.58 ± 0.04			
CC1SC(=O)NN=C1c1ccc2c(c1)C(C)(C)C(=O)N2 (stereo not shown) [Example 3]	-12 ± 2%	0.32 ± 0.06							change in vivo at 0.03 mg/kg [2, 3]: 8%; change in vivo at 0.03 mg/kg [2, 4]: 71%
CC1SC(=O)NN=C1c1ccc2c(c1)C1(SCCCS1)C(=O)N2 (stereo not shown) [Example 14, 5'-(3,6-Dihydro-6-methyl-2-oxo-2H-1,3,4-thiadiazin-5-yl) -spiro[1,3-dithiane-2,3'-[3H]indol]-2(1'H)-one]			22%	30%	+4 ± 1%	0.71 ± 0.09			
CC1SC(=O)NN=C1c1ccc2c(c1)C1(CCCC1)C(=O)N2C(=O)c1ccncc1 (stereo not shown) [Example 27, 5'-(3 6-Dihydro-6-methyl-2-oxo-2H-1,3,4-thiadiazin-5-yl)-1'-[(4 pyridyl)carbonyl]-spiro[cyclopentane-1,3'-[3H]indol]-2'(1'H)-one]					+2 ± 5%	0.47 ± 0.10			change in vivo at 1 mg/kg [2, 3]: 15%; change in vivo at 1 mg/kg [2, 4]: 63%
CSC1C(=O)Nc2ccc(C3=NNC(=O)SC3)cc21 (stereo not shown) [Example 11, 1,3-Dihydro-5-(3,6-dihydro-2-oxo-2H-1,3,4-thiadiazin-5-yl) -3-methylthio-2H-indol-2-one]	+1 ± 0%	0.36 ± 0.05					7%	51%	
